Results: PMC6539005, “Half-Wave Potentials and In Vitro Cytotoxic Evaluation of 3-Acylated 2,5-Bis(phenylamino)-1,4-benzoquinones on Cancer Cells” (Molecules, 2019)
Read-outs that look alike come from different tables or passages of the source.

Tests used:
[1] = Half-wave potentials by cyclic voltammetry in acetonitrile; format: physicochemical; settings: rt, Pt electrode, vs non-aqueous Ag/Ag+, given as negative of potential; for −E^I 1/2: first one-electron reduction, 0.1 M tetraethylammonium tetrafluoroborate; for −E^II 1/2: second one-electron reduction
Procedure: The members of the 3-acyl-2,5-bis(phenylamino)-1,4-benzoquinone series 2a–q were evaluated for their half-wave potentials (E^I 1/2 and E^II 1/2). They were measured by cyclic voltammetry in acetonitrile at room temperature, using a platinum electrode and 0.1 M tetraethylamoniumtetrafluoroborate as the supporting electrolyte. The voltammograms were run in the potential range from 0.0 to −2.0 V versus non-aqueous Ag/Ag^+.

[2] = system: T24 and DU-145 cells; experiment: MTT cytotoxicity assay, both cancer cell lines; format: cell-based; settings: Homo sapiens; mean of T24 and DU-145 IC50
Procedure: (§1) The 3-acyl-2,5-bis(phenylamino)-1,4-benzoquinones 2a–q were evaluated for their in vitro cytotoxic activities against normal human embryonic kidney cells (HEK-293 cells) and two human cancer cell lines (T24 and DU-145 cells) in 72 h drug exposure assays. The cytotoxic activities of the new compounds were measured using conventional microculture tetrazolium reduction assays. The cytotoxic activities are expressed in terms of IC50. Doxorubicin, a clinically used anti-cancer agent, was taken as a positive control.
(§2) Human cancer cell lines T24 (bladder) and DU-145 (prostate), and non-tumor HEK-293 cells were obtained from the American Type Culture Collection (ATCC, Manassas, VA, USA). The cultures were maintained at a density of 1× 10^5 cells/mL and the medium was changed at 48- to 72-h intervals. They were cultured in high-glucose Dulbecco’s modified Eagle medium (Gibco, Grand Island, NY, USA) supplemented with 10% fetal calf serum, penicillin (100 U/mL), and streptomycin (100 μg/mL). All cultures were kept at 37 °C in 95% air/5% CO2 at 100% humidity. Phosphate-buffered saline (PBS) was purchased from Gibco. Cells were incubated at the indicated times at 37 °C, with or without quinones at various concentrations.
(§3) The cytotoxicity of the quinones was assessed by following the reduction of MTT (3-(4,5-Dimethylthiazol-2-yl)-2,5-diphenyltetrazolium bromide) to formazan blue. Cells were seeded into 96-well plates at a density of 10,000 cells/well for 24 h and then incubated for 48 h, with or without the quinone derivatives. Doxorubicin was used as the standard chemotherapeutic agent (positive control). Cells were then washed twice with warm PBS and incubated with MTT (0.5 mg/mL) for 2 hours at 37 °C. Blue formazan crystals were solubilized by adding 100 µL DMSO/well, and the optical density of the coloured solutions was subsequently read at 550 nm. Results are expressed as percentage of MTT reduction, compared to untreated control conditions. The IC50 values were calculated using the GraphPad Prism software (San Diego, CA, USA).

[3] = system: HEK-293 kidney cells; experiment: MTT cytotoxicity assay, HEK-293; format: cell-based; settings: Homo sapiens, HEK293, non-tumor cells, 48 h incubation (b12: 72 h), n = 3, read-out: IC50 ± SEM HEK-293
Procedure: as §1, §2, §3

[4] = system: T24 (bladder) cells; experiment: MTT cytotoxicity assay, T24; format: cell-based, human; settings: 48 h incubation (b12: 72 h), n = 3, read-out: IC50 ± SEM T24
Procedure: as §1, §2, §3

[5] = system: DU-145 (prostate) cells; experiment: MTT cytotoxicity assay, DU-145; format: cell-based; settings: Homo sapiens, 48 h incubation (b12: 72 h), n = 3, read-out: IC50 ± SEM DU-145
Procedure: as §1, §2, §3

[6] = system: human colon adenocarcinoma; parameters: method as in PMID 3746824; settings: cited from earlier work

| −E^I 1/2 [1] | −E^II 1/2 [1] | Structure (SMILES) | IC50 [2] | IC50 [3] | IC50 ([4]; Homo sapiens) | IC50 [5] | IC50 [4] | in vitro inhibitory activity against human colon adenocarcinoma proliferation [6] |
| --- | --- | --- | --- | --- | --- | --- | --- | --- |
| 730 mV | 980 mV | O=C1C=C(Nc2ccc(F)cc2)C(=O)C(C(=O)c2cccs2)=C1Nc1ccc(F)cc1 [2q, 3-(Thiophen-2-carbonyl)-2,5-bis-[(4-fluorophenyl)amino]-1,4-benzoquinone] | > 100 µM | > 100 µM | > 100 µM | > 100 µM |  |  |
| 500 mV | 1030 mV | O=C1C=C(Nc2ccccc2)C(=O)C(C(=O)c2cccs2)=C1Nc1ccccc1 [2h, 3-(Thiophen-2-carbonyl)-2,5-bis(phenylamino)-1,4-benzoquinone] | 78.2 µM | > 100 µM | 75.6 ± 9.1 µM | 80.9 ± 9.7 µM |  |  |
| 550 mV | 920 mV | COc1cc(C(=O)C2=C(Nc3ccc(F)cc3)C(=O)C=C(Nc3ccc(F)cc3)C2=O)ccc1O [2o, 3-(4-Hydroxy-3-methoxybenzoyl)-2,5-bis-[(4-fluorophenyl)amino]-1,4-benzoquinone] | > 100 µM | > 100 µM | > 100 µM | > 100 µM |  |  |
| 680 mV | 950 mV | O=C1C=C(Nc2ccc(F)cc2)C(=O)C(C(=O)c2ccco2)=C1Nc1ccc(F)cc1 [2p, 3-(Furan-2-carbonyl)-2,5-bis-[(4-fluorophenyl)amino]-1,4-benzoquinone] | > 95 µM | 72.8 ± 7 µM | > 100 µM | 90 ± 6.4 µM |  |  |
| 560 mV | 1040 mV | O=C1C=C(Nc2ccc(F)cc2)C(=O)C(C(=O)c2ccccc2)=C1Nc1ccc(F)cc1 [2n, 3-Benzoyl-2,5-bis-[(4-fluorophenyl)amino]-1,4-benzoquinone] | > 87.2 µM | > 100 µM | 74.5 ± 2.2 µM | > 100 µM |  |  |
| 710 mV | 860 mV | COc1ccc(C(=O)C2=C(Nc3ccc(F)cc3)C(=O)C=C(Nc3ccc(F)cc3)C2=O)cc1 [2ñ, 3-(4-Methoxybenzoyl)-2,5-bis-[(4-fluorophenyl)amino]-1,4-benzoquinone] | > 100 µM | > 100 µM | > 100 µM | > 100 µM |  |  |

Second part, the compound before the results:

| Structure (SMILES) | −E^I 1/2 [1] | −E^II 1/2 [1] | IC50 [2] | IC50 [3] | IC50 ([4]; Homo sapiens) | IC50 [5] | IC50 [4] | in vitro inhibitory activity against human colon adenocarcinoma proliferation [6] |
| --- | --- | --- | --- | --- | --- | --- | --- | --- |
| CCCC(=O)C1=C(Nc2ccccc2)C(=O)C=C(Nc2ccccc2)C1=O [2b, 3-Butiryl-2,5-bis(phenylamino)-1,4-benzoquinone] | 570 mV | 1150 mV | > 96.1 µM | > 100 µM | > 100 µM | 92.2 ± 8.7 µM |  |  |
| COc1cc(NC2=CC(=O)C(Nc3cc(OC)c(OC)c(OC)c3)=C(C(=O)c3ccccc3)C2=O)cc(OC)c1OC [2i, 3-Benzoyl-2,5-bis-[(3,4,5-trimethoxyphenyl)amino]-1,4-benzoquinone] | 800 mV | 950 mV | > 96.4 µM | > 100 µM | > 100 µM | 92.9 ± 1.4 µM |  |  |
| CC(=O)C1=C(Nc2ccccc2)C(=O)C=C(Nc2ccccc2)C1=O [2a, 3-Acetyl-2,5-bis(phenylamino)-1,4-benzoquinone] | 565 mV | 1170 mV | > 98 µM | > 100 µM | > 100 µM | 96 ± 7.9 µM |  |  |
| COc1cccc2c1C(=O)c1c(O)c3c(c(O)c1C2=O)C[C@@](O)(C(=O)CO)C[C@@H]3O[C@H]1C[C@H](N)[C@H](O)[C@H](C)O1 [DOX, Doxorubicin, reference compound] |  |  | 0.69 µM |  | 0.43 µM | 0.93 ± 0.06 µM | 0.46 ± 0.08 µM |  |
| COc1ccc(C(=O)C2=C(Nc3ccccc3)C(=O)C=C(Nc3ccccc3)C2=O)cc1OC [2e, 3-(3,4-Dimethoxybenzoyl)-2,5-bis(phenylamino)-1,4-benzoquinone] | 560 mV | 1140 mV | 52.9 µM | > 100 µM | 58.2 ± 7.1 µM | 47.7 ± 4.2 µM |  |  |
| COc1cc(C(=O)C2=C(Nc3ccccc3)C(=O)C=C(Nc3ccccc3)C2=O)cc(OC)c1OC [2f, 3-(3,4,5-Trimethoxybenzoyl)-2,5-bis(phenylamino)-1,4-benzoquinone] | 560 mV | 1120 mV | 36.1 µM | 85.8 ± 0.9 µM | 51.8 ± 6.2 µM | 20.4 ± 2.1 µM |  |  |
| COc1cc(NC2=CC(=O)C(Nc3cc(OC)c(OC)c(OC)c3)=C(C(=O)c3ccco3)C2=O)cc(OC)c1OC [2l, 3-(Furan-2-carbonyl)-2,5-bis-[(3,4,5-trimethoxyphenyl)amino]-1,4-benzoquinone] | 790 mV | 930 mV | 35 µM | 33 ± 4.8 µM | 47.1 ± 2 µM | 23 ± 2.3 µM |  |  |
| COc1ccc(C(=O)C2=C(Nc3cc(OC)c(OC)c(OC)c3)C(=O)C=C(Nc3cc(OC)c(OC)c(OC)c3)C2=O)cc1 [2j, 3-(4-Methoxybenzoyl)-2,5-bis-[(3,4,5-trimethoxyphenyl)amino]-1,4-benzoquinone] | 740 mV | 950 mV | 78.8 µM | 56.9 ± 5.2 µM | 85.3 ± 1.9 µM | 72.4 ± 2.6 µM |  |  |
| COc1cc(NC2=CC(=O)C(Nc3cc(OC)c(OC)c(OC)c3)=C(C(=O)c3cccs3)C2=O)cc(OC)c1OC [2m, 3-(Thiophen-2-carbonyl)-2,5-bis-[(3,4,5-trimethoxyphenyl)amino]-1,4-benzoquinone] | 850 mV | 1010 mV | 55.9 µM | 30.7 ± 3.1 µM | 63.2 ± 0.6 µM | 48.6 ± 3 µM |  |  |
| COc1cc(C(=O)C2=C(Nc3cc(OC)c(OC)c(OC)c3)C(=O)C=C(Nc3cc(OC)c(OC)c(OC)c3)C2=O)ccc1O [2k, 3-(4-Hydroxy-3-methoxybenzoyl)-2,5-bis-[(3,4,5-trimethoxyphenyl)amino]-1,4-benzoquinone] | 610 mV | 1010 mV | > 72.9 µM | 28.3 ± 1.5 µM | > 100 µM | 45.9 ± 3.2 µM |  |  |
| O=C1C=C(Nc2ccccc2)C(=O)C=C1Nc1ccccc1 [A, 2,5-bis(phenylamino)benzoquinone] |  |  |  |  |  |  |  | good in vitro inhibitory activity |
| O=C1C=C(Nc2ccccc2)C(=O)C(C(=O)c2ccco2)=C1Nc1ccccc1 [2g, 3-(Furan-2-carbonyl)-2,5-bis(phenylamino)-1,4-benzoquinone] | 570 mV | 870 mV | 40 µM | 61.7 ± 4.2 µM | 40.2 ± 4 µM | 39.9 ± 3.6 µM |  |  |
